Test results reported in patent US20240041976A1, “COMPOSITION AND USE” (priority 2020, published 2024).
No end group written: not given here.

What was measured:
Assay in all cases: microbe, parasite or virus in culture
[1] = system: S. haemolyticus 4068; conditions: for MIC of the component in combination: 4068
Procedure: (§1) Growth inhibition assays were performed in 96-well microtiter plates as described previously (Chi and Holo, 2018, supra). Briefly, 135 μl of TSB were dispensed in each well of a microtiter plate (according to the number of bacterial strains tested) except in the wells of the first row. The antimicrobials were diluted in TSB to working concentrations in a final volume of 285 μl and dispensed in the wells of the first row. The working concentrations were 100 μg/μl for garvicin KS, 10 μg/μl for micrococcin P1 and 1 mg/ml for penicillin G. From the first row, 150 μl of the antimicrobials were then serially diluted (two-fold dilutions) in a sequential fashion until the last row of the plate. Finally, 15 μl of a fresh O/N culture of each strain were added in the appropriate wells to reach a final volume of 150 μl in each well. The plates were then incubated at 37° C. for 24 h. The growth inhibition was expressed as minimum inhibitory concentration (MIC50), which refers to the minimum concentration of the antimicrobial needed to reduce at least 50% of the microbial growth compared to the untreated control. The MIC50 was assessed by optical density readings at 600 nm (O.D.600).
(§2) Synergistic interactions between antimicrobials were determined using the fractional inhibition concentration (FIC). The FIC values were calculated as follows: the sum of the FIC =FICa+FICb+FICc, where the FICa means MIC of A in combination/MIC of A alone, FICb means MIC of B in combination/MIC of B, and FICc means MIC of C in combination/MIC of C alone. Effects were considered as synergistic if FIC was ≤0.5 for two components mixture and ≤0.75 for three components mixture.
(§3) Bacteriocins and antimicrobial assays. […] These bacteriocins were all solubilized in 0.1% (vol/vol) trifluoracetic acid (TFA; Sigma-Aldrich). […] Cell growth inhibition assays and antimicrobial synergy determination was performed in line with Example 1.
(§4) To investigate whether there was synergy between the three bacteriocins (K1-EJ, GarKS and MP1), a checkboard antimicrobial assay was performed. The selected strains were treated for 5, 24 and 48 h with a range of concentrations of K1-EJ, GarKS and MP1 alone or in different combinations.

[2] = system: S. haemolyticus 4073; conditions: for MIC of the component in combination: 4073
Procedure: as §1, §2, §3, §4

[3] = system: S. haemolyticus 4072; conditions: for MIC of the component in combination: 4072
Procedure: as §1, §2, §3, §4

[4] = system: S. haemolyticus 4069; conditions: for MIC of the component in combination: 4069
Procedure: as §1, §2, §3, §4

[5] = system: S. haemolyticus 4071; conditions: for MIC of the component in combination: 4071
Procedure: as §1, §2, §3, §4

MKFKFNPTGTIVKKLTQYEINWYKQQYGRYPWERPVA [Hybrid K1-EJ]
MIC ([1]; 4068, 5 h): 0.78 µg/mL
MIC ([1]; 4068, 24 h): >100 µg/mL
MIC ([1]; 4068, 48 h): >100 µg/mL
MIC of the component in combination ([1]; 5 h, K1-EJ + GarKS): 0.83 µg/mL
MIC of the component in combination ([1]; 5 h, K1-EJ + GarKS + MP1): 0.32 µg/mL
MIC of the component in combination ([1]; 5 h, K1-EJ + MP1): 0.2 µg/mL
MIC of the component in combination ([1]; 24 h, K1-EJ + GarKS): 3.1 µg/mL
MIC of the component in combination ([1]; 24 h, K1-EJ + GarKS + MP1): 0.78 µg/mL
MIC of the component in combination ([1]; 24 h, K1-EJ + MP1): 0.78 µg/mL
MIC of the component in combination ([1]; 48 h, K1-EJ + GarKS): 6 µg/mL
MIC of the component in combination ([1]; 48 h, K1-EJ + GarKS + MP1): 2.8 µg/mL
MIC of the component in combination ([1]; 48 h, K1-EJ + MP1): 0.72 µg/mL
MIC ([2]; 4073, 5 h): 0.78 µg/mL
MIC ([2]; 4073, 24 h): >100 µg/mL
MIC ([2]; 4073, 48 h): >100 µg/mL
MIC of the component in combination ([2]; 5 h, K1-EJ + GarKS): 1.7 µg/mL
MIC of the component in combination ([2]; 5 h, K1-EJ + GarKS + MP1): 0.33 µg/mL
MIC of the component in combination ([2]; 5 h, K1-EJ + MP1): 0.2 µg/mL
MIC of the component in combination ([2]; 24 h, K1-EJ + GarKS): 6.3 µg/mL
MIC of the component in combination ([2]; 24 h, K1-EJ + GarKS + MP1): 0.78 µg/mL
MIC of the component in combination ([2]; 24 h, K1-EJ + MP1): 0.36 µg/mL
MIC of the component in combination ([2]; 48 h, K1-EJ + GarKS): 12 µg/mL
MIC of the component in combination ([2]; 48 h, K1-EJ + GarKS + MP1): 1.6 µg/mL
MIC of the component in combination ([2]; 48 h, K1-EJ + MP1): 0.85 µg/mL
MIC ([3]; 4072, 5 h): 0.78 µg/mL
MIC ([3]; 4072, 24 h): >100 µg/mL
MIC ([3]; 4072, 48 h): >100 µg/mL
MIC of the component in combination ([3]; 5 h, K1-EJ + GarKS): 1.5 µg/mL
MIC of the component in combination ([3]; 5 h, K1-EJ + GarKS + MP1): 0.68 µg/mL
MIC of the component in combination ([3]; 5 h, K1-EJ + MP1): 0.36 µg/mL
MIC of the component in combination ([3]; 24 h, K1-EJ + GarKS): 12 µg/mL
MIC of the component in combination ([3]; 24 h, K1-EJ + GarKS + MP1): 1.6 µg/mL
MIC of the component in combination ([3]; 24 h, K1-EJ + MP1): 1.5 µg/mL
MIC of the component in combination ([3]; 48 h, K1-EJ + GarKS): 13 µg/mL
MIC of the component in combination ([3]; 48 h, K1-EJ + GarKS + MP1): 5.8 µg/mL
MIC of the component in combination ([3]; 48 h, K1-EJ + MP1): 1.6 µg/mL
MIC ([4]; 4069, 5 h): 0.78 µg/mL
MIC ([4]; 4069, 24 h): 0.78 µg/mL
MIC ([4]; 4069, 48 h): >100 µg/mL
MIC of the component in combination ([4]; 5 h, K1-EJ + GarKS): 1.4 µg/mL
MIC of the component in combination ([4]; 5 h, K1-EJ + GarKS + MP1): 0.68 µg/mL
MIC of the component in combination ([4]; 5 h, K1-EJ + MP1): 1.5 µg/mL
MIC of the component in combination ([4]; 24 h, K1-EJ + GarKS): 6 µg/mL
MIC of the component in combination ([4]; 24 h, K1-EJ + GarKS + MP1): 3.3 µg/mL
MIC of the component in combination ([4]; 24 h, K1-EJ + MP1): 23 µg/mL
MIC of the component in combination ([4]; 48 h, K1-EJ + GarKS): 6.5 µg/mL
MIC of the component in combination ([4]; 48 h, K1-EJ + GarKS + MP1): 5.8 µg/mL
MIC of the component in combination ([4]; 48 h, K1-EJ + MP1): 48 µg/mL
MIC ([5]; 4071, 5 h): 0.78 µg/mL
MIC ([5]; 4071, 24 h): >100 µg/mL
MIC ([5]; 4071, 48 h): >100 µg/mL
MIC of the component in combination ([5]; 5 h, K1-EJ + GarKS): 1.6 µg/mL
MIC of the component in combination ([5]; 5 h, K1-EJ + GarKS + MP1): 0.72 µg/mL
MIC of the component in combination ([5]; 5 h, K1-EJ + MP1): 0.42 µg/mL
MIC of the component in combination ([5]; 24 h, K1-EJ + GarKS): 12 µg/mL
MIC of the component in combination ([5]; 24 h, K1-EJ + GarKS + MP1): 1.6 µg/mL
MIC of the component in combination ([5]; 24 h, K1-EJ + MP1): 1.4 µg/mL
MIC of the component in combination ([5]; 48 h, K1-EJ + GarKS): 24 µg/mL
MIC of the component in combination ([5]; 48 h, K1-EJ + GarKS + MP1): 3.3 µg/mL
MIC of the component in combination ([5]; 48 h, K1-EJ + MP1): 3 µg/mL
